Target: Alpha-glucosidase MAL32 (Saccharomyces cerevisiae (strain ATCC 204508 / S288c), UniProt P38158)
Assay: In Vitro α-Glucosidase Inhibitory Assay
Settings: pH 6.8
Description: The test compounds were dissolved in DMSO to prepare the required distributing concentration. α-Glucosidase inhibitory activity was assayed using 0.1 m phosphate buffer (pH 6.8) at 37°C. The enzyme (0.1 U/ml) in phosphate-buffered saline was incubated with various concentrations of test compounds at 37°C for 15 min. Then, 1.25 mm p-nitrophenyl α-D-glucopyranoside was added to the mixture as a substrate.After further incubation at 37°C for 30 min, the absorbance was measured spectrophotometrically at 405 nm. The sample solution was replaced by DMSO as a control. Acarbose was used as a positive control. All experiments were carried out in triplicates.

Chain of Alpha-glucosidase MAL32 (P38158 whole entry): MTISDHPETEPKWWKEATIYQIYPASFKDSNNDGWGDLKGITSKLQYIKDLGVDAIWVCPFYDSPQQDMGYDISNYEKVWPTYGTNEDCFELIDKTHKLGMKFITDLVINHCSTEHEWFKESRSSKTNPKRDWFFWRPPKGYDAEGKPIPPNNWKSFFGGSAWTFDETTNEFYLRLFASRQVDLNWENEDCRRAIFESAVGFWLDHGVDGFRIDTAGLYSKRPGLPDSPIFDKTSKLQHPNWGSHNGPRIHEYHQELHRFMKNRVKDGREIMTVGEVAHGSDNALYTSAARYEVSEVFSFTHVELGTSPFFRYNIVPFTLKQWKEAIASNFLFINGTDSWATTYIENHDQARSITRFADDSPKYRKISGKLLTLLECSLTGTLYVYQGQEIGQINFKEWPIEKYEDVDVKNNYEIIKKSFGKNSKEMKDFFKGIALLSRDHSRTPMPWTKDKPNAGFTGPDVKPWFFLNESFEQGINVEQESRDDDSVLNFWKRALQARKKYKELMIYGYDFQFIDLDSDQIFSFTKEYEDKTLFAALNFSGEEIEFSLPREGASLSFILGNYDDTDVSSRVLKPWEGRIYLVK

Compared with `O=C(COc1ccc2ccc(=O)oc2c1)N/N=C1\C(=O)Nc2ccccc21` [(Z)-2-((2-oxo-2H-chromen-7-yl)oxy)-N'-(2-oxoindolin-3-ylidene)acetohydrazide (5a)], `O=C(COc1ccc2ccc(=O)oc2c1)N/N=C1\C(=O)Nc2ccc(Br)cc21` [(Z)-N'-(5-bromo-2-oxoindolin-3-ylidene)-2-((2-oxo-2H-chromen-7-yl)oxy)acetohydrazide (5f)] is 13-fold lower in IC50: 187 µM for the first, 14.2 µM for the second. The second is the more potent here.

`O=C(COc1ccc2ccc(=O)oc2c1)N/N=C1\C(=O)N(Cc2ccccc2Cl)c2ccccc21` [(Z)-N'-(1-(2-chlorobenzyl)-2-oxoindolin-3-ylidene)-2-((2-oxo-2H-chromen-7-yl)oxy)acetohydrazide (5l)] and `O=C(COc1ccc2ccc(=O)oc2c1)N/N=C1\C(=O)N(Cc2ccccc2F)c2ccccc21` [(Z)-N'-(1-(2-fluorobenzyl)-2-oxoindolin-3-ylidene)-2-((2-oxo-2H-chromen-7-yl)oxy)acetohydrazide (5j)] are within 1.5-fold of each other in IC50: 7.31 µM for the first, 7.37 µM for the second.

Going from `Cc1ccc2c(c1)/C(=N/NC(=O)COc1ccc3ccc(=O)oc3c1)C(=O)N2Cc1ccccc1F` [(Z)-N'-(1-(2-fluorobenzyl)-5-methyl-2-oxoindolin-3-ylidene)-2-((2-oxo-2H-chromen-7-yl)oxy)acetohydrazide (5n)] to `O=C(COc1ccc2ccc(=O)oc2c1)N/N=C1\C(=O)N(Cc2ccccc2F)c2ccc(Cl)cc21` [(Z)-N'-(5-chloro-1-(2-fluorobenzyl)-2-oxoindolin-3-ylidene)-2-((2-oxo-2H-chromen-7-yl)oxy)acetohydrazide (5p)], the IC50 falls from 66.8 µM to 2.56 µM (26-fold). The second is the more potent here.

Compared with `O=C(COc1ccc2ccc(=O)oc2c1)N/N=C1\C(=O)N(Cc2cccc(F)c2)c2ccccc21` [(Z)-N'-(1-(3-fluorobenzyl)-2-oxoindolin-3-ylidene)-2-((2-oxo-2H-chromen-7-yl)oxy)acetohydrazide (5k)], `Cc1ccc2c(c1)/C(=N/NC(=O)COc1ccc3ccc(=O)oc3c1)C(=O)N2Cc1cccc(F)c1` [(Z)-N'-(1-(3-fluorobenzyl)-5-methyl-2-oxoindolin-3-ylidene)-2-((2-oxo-2H-chromen-7-yl)oxy)acetohydrazide (5o)] is 8.3-fold higher in IC50: 9.33 µM for the first, 77.8 µM for the second.

`O=C(COc1ccc2ccc(=O)oc2c1)N/N=C1\C(=O)N(Cc2ccc(Br)cc2)c2ccccc21` [(Z)-N'-(1-(4-bromobenzyl)-2-oxoindolin-3-ylidene)-2-((2-oxo-2H-chromen-7-yl)oxy)acetohydrazide (5m)] and `O=C(COc1ccc2ccc(=O)oc2c1)N/N=C1\C(=O)N(Cc2ccc(Br)cc2)c2ccc(Br)cc21` [(Z)-N'-(5-bromo-1-(4-bromobenzyl)-2-oxoindolin-3-ylidene)-2-((2-oxo-2H-chromen-7-yl)oxy)acetohydrazide (5t)] are within 1.5-fold of each other in IC50: 4.07 µM for the first, 3.98 µM for the second.

Going from `O=C(COc1ccc2ccc(=O)oc2c1)N/N=C1\C(=O)N(Cc2ccccc2)c2ccccc21` [(Z)-N'-(1-benzyl-2-oxoindolin-3-ylidene)-2-((2-oxo-2H-chromen-7-yl)oxy)acetohydrazide (5i)] to `O=C(COc1ccc2ccc(=O)oc2c1)N/N=C1\C(=O)N(Cc2ccccc2)c2ccc(Br)cc21` [(Z)-N'-(1-benzyl-5-bromo-2-oxoindolin-3-ylidene)-2-((2-oxo-2H-chromen-7-yl)oxy)acetohydrazide (5r)], the IC50 falls from 14.1 µM to 4.48 µM (3.1-fold). The second is the more potent here.

First: CN1C(=O)/C(=N\NC(=O)COc2ccc3ccc(=O)oc3c2)c2ccccc21 [(Z)-N'-(1-methyl-2-oxoindolin-3-ylidene)-2-((2-oxo-2H-chromen-7-yl)oxy)acetohydrazide (5h)]
Second: Cc1ccc2c(c1)/C(=N/NC(=O)COc1ccc3ccc(=O)oc3c1)C(=O)N2 [(Z)-N'-(5-methyl-2-oxoindolin-3-ylidene)-2-((2-oxo-2H-chromen-7-yl)oxy)acetohydrazide (5b)]
The IC50 of the first is 2.4-fold higher: 269 µM for the first, 114 µM for the second.

`Cc1cc(C)c2c(c1)/C(=N/NC(=O)COc1ccc3ccc(=O)oc3c1)C(=O)N2` [(Z)-N'-(5,7-dimethyl-2-oxoindolin-3-ylidene)-2-((2-oxo-2H-chromen-7-yl)oxy)acetohydrazide (5c)] and `O=C(COc1ccc2ccc(=O)oc2c1)N/N=C1\C(=O)Nc2ccc(Cl)cc21` [(Z)-N'-(5-chloro-2-oxoindolin-3-ylidene)-2-((2-oxo-2H-chromen-7-yl)oxy)acetohydrazide (5e)] are within 1.5-fold of each other in IC50: 197 µM for the first, 153 µM for the second.

`O=C(COc1ccc2ccc(=O)oc2c1)N/N=C1\C(=O)N(Cc2ccccc2Cl)c2ccc(Br)cc21` [(Z)-N'-(5-bromo-1-(2-chlorobenzyl)-2-oxoindolin-3-ylidene)-2-((2-oxo-2H-chromen-7-yl)oxy)acetohydrazide (5s)] and `O=C(COc1ccc2ccc(=O)oc2c1)N/N=C1\C(=O)N(Cc2cccc(F)c2)c2ccc(Cl)cc21` [(Z)-N'-(5-chloro-1-(3-fluorobenzyl)-2-oxoindolin-3-ylidene)-2-((2-oxo-2H-chromen-7-yl)oxy)acetohydrazide (5q)] are within 1.5-fold of each other in IC50: 2.85 µM for the first, 2.88 µM for the second.

`O=C(COc1ccc2ccc(=O)oc2c1)N/N=C1\C(=O)Nc2ccc(F)cc21` [(Z)-N'-(5-fluoro-2-oxoindolin-3-ylidene)-2-((2-oxo-2H-chromen-7-yl)oxy)acetohydrazide (5d)] and `O=C(COc1ccc2ccc(=O)oc2c1)N/N=C1\C(=O)Nc2ccc([N+](=O)[O-])cc21` [(Z)-N'-(5-nitro-2-oxoindolin-3-ylidene)-2-((2-oxo-2H-chromen-7-yl)oxy)acetohydrazide (5g)] are within 1.5-fold of each other in IC50: 12 µM for the first, 9.47 µM for the second.
